{"source": "paper PMC5772529", "about": "(Scientific Reports, 2018)", "key": {"mice [1]": {"system": "mice", "details": "mouse, in vivo"}, "Beagle dogs": {"system": "Beagle dogs", "details": "dog, in vivo"}, "mice [2]": {"system": "mice", "details": "mouse, in vivo", "remark": "listed apart in the source"}, "rats": {"system": "rats", "details": "rat, in vivo"}, "mice [3]": {"system": "mice", "details": "mouse, in vivo", "remark": "listed apart in the source"}}, "note": "Positions of bridges follow the written chain, without caps; N, C: chain ends. Residues, ends and D or L forms follow the SMILES beside them.", "data": [{"smiles": "CSCC[C@@H]1NC(=O)[C@@H]2CSSC[C@H](NC(=O)CN)C(=O)N[C@@H](CSSC[C@@H](C(N)=O)NC(=O)[C@H](CC(C)C)NC(=O)[C@H](CC(N)=O)NC(=O)[C@@H]3CCCN3C(=O)[C@H](CC(N)=O)NC(=O)[C@H](CCCCN)NC(=O)[C@H](CC(C)C)NC1=O)C(=O)N[C@@H](CO)C(=O)N[C@@H](CC(N)=O)C(=O)N1CCC[C@H]1C(=O)N[C@@H](C)C(=O)N2", "note": "[Eu1.6] (H-GCCSNPACMLKNPNLC-NH2; disulfide 2-8, 3-16)", "values": [{"measurement": "effect on mice motor function", "setting": "mice [1]", "result": "did not show any significant effect"}, {"measurement": "effect on cardiac or respiratory function", "setting": "Beagle dogs", "result": "did not show any significant effect"}, {"measurement": "effect on the cardiac and respiratory function", "setting": "Beagle dogs", "result": "no significant effect"}, {"measurement": "effects on mice spontaneous locomotor activity", "setting": "mice [2]", "result": "no significant effects"}, {"measurement": "effects on spontaneous locomotor activity (moving distance and activity time in 6 min)", "setting": "mice [2]", "result": "no significant effects"}, {"measurement": "side-effects in acute tests of rats", "setting": "rats", "result": "did not exhibit any significant side-effects"}, {"measurement": "activity at KCNQ1 channels", "setting": "KCNQ1", "result": "no activity"}, {"measurement": "morphine-like addictive symptoms", "setting": "mice [3]", "result": "did not exhibit the morphine-like addictive symptoms"}, {"measurement": "morphine-like dependence (naloxone-induced jumping number, weight loss)", "setting": "mice [3]", "result": "did not produce morphine-like dependence"}]}]}
